Holding throughout (test): NCI-60 cell line screen, 48 h
Test [1] deals with SK-MEL-28 melanoma.
Test [2] concerns UACC-62 melanoma.
Test [3] has as its system SF-268 CNS.
The test system of test [4] is SF-295 CNS.
The subject of test [5] is OVCAR-5 ovarian.
Test [6] deals with UO-31 renal.
Test [7] concerns HOP-92 NSCLC.
The subject of test [8] is TK-10 renal.
Test [9] deals with HCT-116 colon.
Test [10] concerns NCI-H460 lung.
Test [11] relates to HCC-2998 colon.

TGI and GI50 data for twelve compounds are collected here from PubChem BioAssay (NCI).

Structures are written as SMILES.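 Tested at 5 concentrations; 48 h exposure; 96-well plates; endpoints linearly interpolated, else capped at highest concentration. Here, GI50 denotes the concentration required for 50% inhibition of growth. TGI: concentration producing complete growth inhibition.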

On to `COC(=O)/C=C/c1ccc(OP(=O)(O)O)c(OC)c1`, for which the TGI in test [1], in test [2], in [3], in test [4], in [5] and in test [6] was over 100 µM throughout. Moreover, the TGI in test [7], in test [8], in test [9], in test [10] and in [11] was over 100 µM throughout.
For the compound `CN1CCOC(C(NC(=O)c2ccccc2)c2ccccc2)C1=O` (stereo not drawn), the TGI in test [1], in [2], in [3], in test [4], in test [5] and in test [6] was over 100 µM throughout. Moreover, the TGI in [7], in test [8], in test [9], in test [10] and in test [11] was over 100 µM each time.
`COC1(OC)c2occc2C(=N)c2ccc(=O)oc21`: the TGI in [1], in test [2], in [3], in test [4], in test [5] and in test [6] was over 100 µM in each case. Further, the TGI in test [7], in [8], in test [9], in [10] and in test [11] was over 100 µM in each case.
Turning to `C=CCC(CCC(C)=O)(C(=O)OCC)C(=O)OCC`, the TGI in [1], in test [2], in test [3], in [4], in [5] and in test [6] was over 100 µM each time. In addition, the TGI in [7], in test [8], in [9], in test [10] and in test [11] was over 100 µM throughout.
With `S=C1Cc2c(-c3ccccc3)cc(-c3cccc(Cl)c3)nc2-c2ccccc2N1`, the TGI in test [1] was 51.8 µM; in test [2], 5.36 µM; in test [3], 17.7 µM; in test [4] it was 17.2 µM; in [5], over 72.7 µM; in test [6] it was 16.9 µM. The TGI in [7] was 5.12 µM; in [8], 1.9 µM; in [9], 6.53 µM; in test [10] it was 7.11 µM; in test [11], 18.7 µM. Also, the GI50 in test [8] is 0.436 µM.
In the case of `Oc1c(N2CCCCC2)cc(-c2cc(N3CCCCC3)c(O)c3ccccc23)c2ccccc12`, the TGI in test [1] was 40.9 µM; in [2] it was 51.6 µM; in test [3] it was over 100 µM; in test [4], over 100 µM; in test [5], over 100 µM; in test [6] it was over 100 µM. Moreover, the TGI in test [7] was 70.4 µM; in test [8] it was over 100 µM; in test [9], 40.7 µM; in test [10], over 100 µM; in test [11], over 100 µM.
For the compound `COC(=O)c1cc2c(cc1Cl)Sc1nnc(Nc3ccccc3)n1S2(=O)=O`, the TGI in test [1] was 10.5 µM; in test [2], 14.6 µM; in test [3], 5.48 µM; in test [4], 12.7 µM; in test [5] it was 21.4 µM; in test [6], 7.56 µM. The TGI in [7] was determined as 3.75 µM; in test [8] it was 8.66 µM; in [9], 14.7 µM; in test [10], 23.8 µM; in [11], 4.59 µM.
In the case of `COc1ccc(OC)c2sc(N3C(=O)/C(=C/c4cccc(Oc5ccccc5)c4)N=C3c3ccccc3)nc12`, the TGI in test [1], in [2], in test [3], in test [4], in [5] and in test [6] was over 100 µM in each case. Besides, the TGI in test [7], in [8], in [9], in [10] and in test [11] was over 100 µM in each case.
Regarding `CC(C)(CN1CCCCC1)C(=O)/C=C/c1ccc(Br)cc1`, the TGI is 11.7 µM in test [1]; over 22.9 µM in test [2]; 7.08 µM in test [3]; 17.4 µM in test [4]; 11.8 µM in test [5]; over 24.7 µM in [6]. For the same compound, the TGI was 4.1 µM in test [7]; 10.2 µM in test [8]; 8.08 µM in [9]; over 20.4 µM in test [10]; 31.7 µM in [11].
Take `CCCCCCCCCCCCCCCCCCNc1ccn(C2OC(COP(=O)(O)OCC3OC(n4ccc(N)nc4=O)C(O)C3O)C(O)C2O)c(=O)n1` (stereo not drawn): the TGI in [1], in [2], in test [3], in [4], in test [5] and in [6] was over 100 µM throughout. Also, the TGI in test [7] is over 100 µM; in test [8], over 100 µM; in test [9] it was over 100 µM; in test [10], over 78.8 µM; in test [11] it was over 100 µM.
With `CCN1/C(=C/C#C/C(C)=C\c2sc3ccc(Cl)cc3[n+]2CC)Sc2ccc(Cl)cc21`, the TGI was 26.5 µM in [1]; 13.6 µM in test [2]; 21.4 µM in test [3]; 14.9 µM in test [4]; 21.3 µM in test [5]; 14.5 µM in test [6]. Moreover, the TGI in test [7] is 5.52 µM; in test [8] it was over 100 µM; in test [9], 12.3 µM; in [10] it was over 100 µM; in [11], 17.6 µM.
In the case of `O=C(c1ccccc1)C1(Br)S(=O)(=O)OCCOS1(=O)=O`, the TGI in test [1], in test [2], in test [3], in test [4], in [5] and in test [6] was over 100 µM throughout. The TGI in [7], in test [8], in test [9], in test [10] and in test [11] was over 100 µM in each case.
